Results as given in ChEMBL document CHEMBL2417411, “Design and synthesis of novel 2'-hydroxy group substituted 2-pyridone derivatives as anticancer agents” (Eur J Med Chem, 2013).

Key:
cells = details: Homo sapiens, QGY7701, 48 h
Description: Cytotoxicity against human QGY7701 cells after 48 hrs by MTT assay

physchem = details: octanol/water
Description: Lipophilicity, log P of the compound

SW480 [1] = assay: cells; details: Homo sapiens, SW480, 48 h
Description: Cytotoxicity against human SW480 cells after 48 hrs by MTT assay

MDA-MB-231 = assay: cells; details: Homo sapiens, MDA-MB-231, 48 h
Description: Cytotoxicity against human MDA-MB-231 cells after 48 hrs by MTT assay

HeLa [2] = assay: cells; details: Homo sapiens, 48 h
Description: Cytotoxicity against human HeLa cells after 48 hrs by MTT assay

SGC-7901 = assay: cells; details: Homo sapiens, SGC-7901, 48 h
Description: Cytotoxicity against human SGC7901 cells after 48 hrs by MTT assay

A549 [3] = assay: cells; details: Homo sapiens, A549, 48 h
Description: Cytotoxicity against human A549 cells after 48 hrs by MTT assay

A549 [4] = assay: Ratio of 5-fluorouracil IC50 to compound IC50 for human A549 cells after 48 hrs by MTT assay; type: functional
SW480 [5] = assay: Ratio of 5-fluorouracil IC50 to compound IC50 for human SW480 cells after 48 hrs by MTT assay; type: functional
HeLa [6] = assay: Ratio of 5-fluorouracil IC50 to compound IC50 for human HeLa cells after 48 hrs by MTT assay; type: functional

Row | Structure (SMILES) | IC50 (cells) [µM] | logP (physchem) | IC50 (SW480 [1]) [µM] | IC50 (MDA-MB-231) [µM] | IC50 (HeLa [2]) [µM] | IC50 (SGC-7901) [µM] | IC50 (A549 [3]) [µM] | Ratio IC50 (A549 [4]) | Ratio IC50 (SW480 [5]) | Ratio IC50 (HeLa [6])
1 | COc1ccc(C(=O)c2ccc(=O)n(-c3ccccc3C)c2)c(OCc2cn(Cc3ccc(Cl)cc3Cl)nn2)c1 | 6.43 | 4.23 | 2.22 | 1.19 | 3.51 | 0.41 | 2.56 | – | – | –
2 | COc1ccc(C(=O)c2ccc(=O)n(-c3ccccc3C)c2)c(OCc2cn(Cc3cccc(Cl)c3)nn2)c1 | > 30 | 4.05 | 1.37 | 0.38 | 3.71 | > 30 | 1.53 | – | – | –
3 | COc1ccc(C(=O)c2ccc(=O)n(-c3ccccc3C)c2)c(OCc2cn(Cc3ccc(Cl)cc3)nn2)c1 | > 30 | 4.05 | 0.21 | 0.32 | 0.54 | 1.1 | 0.86 | 6.5 | 74.8 | 30.6
4 | COc1ccc(C(=O)c2ccc(=O)n(-c3ccccc3C)c2)c(OCc2cn(Cc3ccccc3F)nn2)c1 | > 30 | 3.59 | 3.28 | 1.14 | 4.83 | > 30 | 3.96 | – | – | –
5 | COc1ccc(C(=O)c2ccc(=O)n(-c3ccccc3C)c2)c(OCc2cn(Cc3cccc(F)c3)nn2)c1 | > 30 | 3.59 | 2.23 | 1.24 | 5.75 | > 30 | 3.06 | – | – | –
6 | COc1ccc(C(=O)c2ccc(=O)n(-c3ccccc3C)c2)c(OCc2cn(Cc3ccc(F)cc3)nn2)c1 | 5.44 | 3.59 | 2.37 | 1.46 | 8.48 | 0.19 | 0.48 | – | – | –
7 | COc1ccc(C(=O)c2ccc(=O)n(-c3ccccc3C)c2)c(OCc2cn(Cc3ccccc3C)nn2)c1 | 4.63 | 4.1 | 3.07 | 1.34 | 4.86 | > 30 | 3.21 | – | – | –
8 | COc1ccc(C(=O)c2ccc(=O)n(-c3ccccc3C)c2)c(OCc2cn(Cc3cccc(C)c3)nn2)c1 | 6.38 | 4.1 | 2.45 | 0.21 | 3.27 | > 30 | 3.25 | – | – | –
9 | COc1ccc(C(=O)c2ccc(=O)n(-c3ccccc3C)c2)c(OCc2cn(Cc3ccc(C)cc3)nn2)c1 | > 30 | 4.1 | 0.48 | 0.49 | 0.38 | 5.48 | 0.61 | – | – | –
10 | COc1ccc(Cn2cc(COc3cc(OC)ccc3C(=O)c3ccc(=O)n(-c4ccccc4C)c3)nn2)cc1 | > 30 | 3.79 | > 30 | 0.59 | 0.99 | 1.28 | 1.54 | – | – | –
11 | COc1ccc(C(=O)C2=CC(c3ccccc3C)C(=O)C=C2)c(OCc2cn(Cc3ccc(C(C)(C)C)cc3)nn2)c1 (stereo unspecified) | 3.39 | – | 0.11 | 3.35 | 0.34 | 3.52 | 1.73 | – | 142.7 | 48.5
12 | COc1ccc(C(=O)c2ccc(=O)n(-c3ccccc3C)c2)c(OC(=O)c2ccc(C)cc2)c1 | > 30 | 4.32 | 2.31 | 0.54 | 3.27 | 3.96 | 3.24 | – | – | –
13 | CCCCC(CC)C(=O)Oc1cc(OC)ccc1C(=O)c1ccc(=O)n(-c2ccccc2C)c1 (stereo unspecified) | > 30 | 5.04 | 3.35 | 0.37 | 2.28 | 1.48 | 2.95 | – | – | –
14 | COc1ccc(C(=O)c2ccc(=O)n(-c3ccccc3C)c2)c(OC(=O)c2ccc(Cl)cc2)c1 | > 30 | 4.27 | 1.33 | 1.84 | 1.56 | 5.79 | 5.23 | – | – | –
15 | COc1ccc(C(=O)c2ccc(=O)n(-c3ccccc3C)c2)c(OC(=O)c2ccc(F)cc2)c1 | 9.64 | 3.81 | 2.78 | 2.35 | 6.86 | 3.62 | 3.68 | – | – | –
16 | COc1ccc(C(=O)c2ccc(=O)n(-c3ccccc3C)c2)c(OC(C)=O)c1 | > 30 | 2.7 | > 30 | > 30 | > 30 | 6.21 | > 30 | – | – | –
17 | COc1ccc(C(=O)c2ccc(=O)n(-c3ccccc3C)c2)c(OC(=O)c2ccccc2)c1 | > 30 | 4.09 | 3.12 | 1.18 | 7.29 | 1.42 | 4.47 | – | – | –

Row | Structure (SMILES) | IC50 (cells) [µM] | logP (physchem) | IC50 (SW480 [1]) [µM] | IC50 (MDA-MB-231) [µM] | IC50 (HeLa [2]) [µM] | IC50 (SGC-7901) [µM] | IC50 (A549 [3]) [µM] | Ratio IC50 (A549 [4]) | Ratio IC50 (SW480 [5]) | Ratio IC50 (HeLa [6])
18 | COc1ccc(C(=O)c2ccc(=O)n(-c3ccccc3C)c2)c(OC(=O)Cc2ccc(Cl)cc2)c1 | 5.68 | 4.4 | 0.58 | 2.44 | 0.58 | 3.48 | 0.49 | – | – | –
19 | COc1ccc(C(=O)c2ccc(=O)n(-c3ccccc3C)c2)c(OC(=O)Cc2ccccc2Cl)c1 | 6.05 | 4.4 | 1.17 | 2.97 | 0.87 | 1.45 | 1.94 | – | – | –
20 | COc1ccc(C(=O)c2ccc(=O)n(-c3ccccc3C)c2)c(OC(=O)c2cc([N+](=O)[O-])cc([N+](=O)[O-])c2)c1 | > 30 | 3.88 | 2.75 | 3.28 | 5.33 | 2.44 | 3.89 | – | – | –
21 | CCCOC(=O)Oc1cc(OC)ccc1C(=O)c1ccc(=O)n(-c2ccccc2C)c1 | > 30 | 3.31 | 5.97 | 2.11 | 7.03 | 4.18 | 6.13 | – | – | –
22 | COc1ccc(C(=O)c2ccc(=O)n(-c3ccccc3C)c2)c(OC(=O)OCc2ccccc2)c1 | 4.33 | 4.23 | 0.52 | 0.75 | 0.46 | 0.69 | 0.59 | 9.5 | 30.2 | 35.9
23 | CCOC(=O)Oc1cc(OC)ccc1C(=O)c1ccc(=O)n(-c2ccccc2C)c1 | > 30 | 2.95 | 4.56 | > 30 | 7.44 | 3.35 | 5.83 | – | – | –
24 | C#CCOc1cc(OC)ccc1C(=O)c1ccc(=O)n(-c2ccccc2C)c1 | 9.08 | – | 5.33 | > 30 | 7.82 | 6.94 | 7.59 | – | – | –
25 | COc1ccc(C(=O)c2ccc(=O)n(-c3ccccc3C)c2)c(OCc2cn(Cc3ccccc3)nn2)c1 | > 30 | 3.88 | 2.51 | > 30 | 4.23 | 1.25 | 3.64 | – | – | –
26 | COc1ccc(C(=O)c2ccc(=O)n(-c3ccccc3C)c2)c(OCc2cn(Cc3ccccc3Br)nn2)c1 | > 30 | 4.05 | 3.62 | > 30 | 5.22 | 1.23 | 5.35 | – | – | –
27 | COc1ccc(C(=O)c2ccc(=O)n(-c3ccccc3C)c2)c(OCc2cn(Cc3cccc(Br)c3)nn2)c1 | > 30 | 4.05 | 2.32 | > 30 | 4.52 | 5.68 | 4.46 | – | – | –
28 | COc1ccc(C(=O)c2ccc(=O)n(-c3ccccc3C)c2)c(OCc2cn(Cc3ccc(Br)cc3)nn2)c1 | 4.99 | 4.23 | > 30 | 2.47 | 4.25 | 2.29 | 5.45 | – | – | –
29 | COc1ccc(C(=O)c2ccc(=O)n(-c3ccccc3C)c2)c(OCc2cn(Cc3ccccc3C#N)nn2)c1 | > 30 | 3.6 | > 30 | > 30 | 8.05 | > 30 | 8.32 | – | – | –
30 | COc1ccc(C(=O)c2ccc(=O)n(-c3ccccc3C)c2)c(OCc2cn(Cc3ccc(C#N)cc3)nn2)c1 | 2.87 | 3.6 | > 30 | 0.43 | 0.89 | > 30 | 4.31 | – | – | –
31 | COc1ccc(C(=O)c2ccc(=O)n(-c3ccccc3C)c2)c(OCc2cn(Cc3cccc(O[N+](=O)[O-])c3)nn2)c1 | 3.01 | 3.77 | 4.42 | 1.39 | 3.12 | 0.55 | 3.61 | – | – | –
32 | COc1ccc(C(=O)c2ccc(=O)n(-c3ccccc3C)c2)c(OCc2cn(Cc3ccccc3Cl)nn2)c1 | 4.72 | 4.05 | 0.39 | 0.38 | 1.7 | > 30 | 0.69 | – | – | –
33 | O=c1[nH]cc(F)c(=O)[nH]1 [FLUOROURACIL] | – | – | – | – | 16.5 | – | – | – | – | –
